In brackets after ≈: the same amount, converted by molar mass.
What was measured:
[1] = test system: Mycobacterium tuberculosis; assay: Antitubercular activity against Mycobacterium tuberculosis H37Rv reduction in bacterial multiplication incubated for 7 days by luminometric assay; type: functional; details: 168 h
[2] = Cytotoxicity in human MRC5 cells assessed as reduction in cell viability incubated for 24 hrs by resazurin-based cytotoxicity assay
Plasmodium falciparum = assay: Antiplasmodial activity against Plasmodium falciparum K1 infected in human erythrocytes assessed as reduction in parasite multiplication incubated for 72 hrs by Malstat method; type: functional, organism-based; details: K1, 72 h
[3] = Oral bioavailability in healthy human at 500 mg; type: ADME, organism-based; details: in vivo

| Structure (SMILES) | MIC [1] [µM] | CC50 at 24 h [2] [µM] | IC50 (Plasmodium falciparum) [µM] | bioavailability [3] [%] |
| --- | --- | --- | --- | --- |
| CN(O)C(=O)CCCP(=O)(OCOC(=O)C(C)(C)C)OCOC(=O)C(C)(C)C | > 50 | > 64 | – | – |
| CN(OC(=O)c1ccccc1)C(=O)CCCP(=O)(OCOC(=O)C(C)(C)C)OCOC(=O)C(C)(C)C | 50 (≈ 26.5 µg/mL) | > 64 | 1.08 | – |
| CN(OC(=O)Nc1ccccc1)C(=O)CCCP(=O)(OCOC(=O)C(C)(C)C)OCOC(=O)C(C)(C)C | – | 33.4 | 3.34 | – |
| CN(OCc1ccc([N+](=O)[O-])o1)C(=O)CCCP(=O)(OCOC(=O)C(C)(C)C)OCOC(=O)C(C)(C)C | 12.5 (≈ 6.88 µg/mL) | 26.3 | 4.42 | – |
| CN(OCc1ccc([N+](=O)[O-])cc1)C(=O)CCCP(=O)(OCOC(=O)C(C)(C)C)OCOC(=O)C(C)(C)C | > 50 | 26.5 | 8.79 | – |
| CN(OC(=O)NCc1ccccc1)C(=O)CCCP(=O)(OCOC(=O)C(C)(C)C)OCOC(=O)C(C)(C)C | > 50 | 27.9 | 0.64 | – |
| CCNC(=O)ON(C)C(=O)CCCP(=O)(OCOC(=O)C(C)(C)C)OCOC(=O)C(C)(C)C | > 50 | 25.9 | 2.52 | – |
| CC(=O)ON(C)C(=O)CCCP(=O)(OCOC(=O)C(C)(C)C)OCOC(=O)C(C)(C)C | – | > 64 | 1.34 | – |
| CCCCCCCCC(=O)ON(C)C(=O)CCCP(=O)(OCOC(=O)C(C)(C)C)OCOC(=O)C(C)(C)C | 50 (≈ 28.3 µg/mL) | > 64 | 1.41 | – |
| CN(OC(=O)OCc1ccccc1)C(=O)CCCP(=O)(OCOC(=O)C(C)(C)C)OCOC(=O)C(C)(C)C | > 50 | > 42 | > 36 | – |
| CN(OCc1ccc([N+](=O)[O-])s1)C(=O)CCCP(=O)(OCOC(=O)C(C)(C)C)OCOC(=O)C(C)(C)C | 12.5 (≈ 7.08 µg/mL) | 20.5 | 4.69 | – |
| CCCCCCCCC(=O)Oc1ccc(CON(C)C(=O)CCCP(=O)(OCOC(=O)C(C)(C)C)OCOC(=O)C(C)(C)C)cc1 | 50 (≈ 33.6 µg/mL) | > 64 | 19 | – |
| O=CN(O)CCCP(=O)([O-])O.[Na+] [FOSMIDOMYCIN SODIUM] | > 64 | > 64 | – | 20 to 40 |

— ChEMBL document CHEMBL4316625, “Double prodrugs of a fosmidomycin surrogate as antimalarial and antitubercular agents” (Bioorg Med Chem Lett, 2019)
